Data as given in US9828357B2, “Cyclic compounds” (Takeda Pharmaceutical Company Limited, priority 2015, dated 2017).

Assays:
TLR4 = molecular target: T1, TLR4 (Mus musculus, UniProt Q9QUK6); assay: Inhibitory effect with respect to NO production (LPS/interferon γ-stimulated RAW264.7); type: cell-based, murine; conditions: RAW264.7 cells, LPS 1.25 ng/mL and mouse interferon γ 0.2 ng/mL, nitrite ion in culture supernatant
T1 construct: endogenous in cells; host or cells: RAW264.7 (murine macrophage cell line)
T1 sequence (Q9QUK6 26-835): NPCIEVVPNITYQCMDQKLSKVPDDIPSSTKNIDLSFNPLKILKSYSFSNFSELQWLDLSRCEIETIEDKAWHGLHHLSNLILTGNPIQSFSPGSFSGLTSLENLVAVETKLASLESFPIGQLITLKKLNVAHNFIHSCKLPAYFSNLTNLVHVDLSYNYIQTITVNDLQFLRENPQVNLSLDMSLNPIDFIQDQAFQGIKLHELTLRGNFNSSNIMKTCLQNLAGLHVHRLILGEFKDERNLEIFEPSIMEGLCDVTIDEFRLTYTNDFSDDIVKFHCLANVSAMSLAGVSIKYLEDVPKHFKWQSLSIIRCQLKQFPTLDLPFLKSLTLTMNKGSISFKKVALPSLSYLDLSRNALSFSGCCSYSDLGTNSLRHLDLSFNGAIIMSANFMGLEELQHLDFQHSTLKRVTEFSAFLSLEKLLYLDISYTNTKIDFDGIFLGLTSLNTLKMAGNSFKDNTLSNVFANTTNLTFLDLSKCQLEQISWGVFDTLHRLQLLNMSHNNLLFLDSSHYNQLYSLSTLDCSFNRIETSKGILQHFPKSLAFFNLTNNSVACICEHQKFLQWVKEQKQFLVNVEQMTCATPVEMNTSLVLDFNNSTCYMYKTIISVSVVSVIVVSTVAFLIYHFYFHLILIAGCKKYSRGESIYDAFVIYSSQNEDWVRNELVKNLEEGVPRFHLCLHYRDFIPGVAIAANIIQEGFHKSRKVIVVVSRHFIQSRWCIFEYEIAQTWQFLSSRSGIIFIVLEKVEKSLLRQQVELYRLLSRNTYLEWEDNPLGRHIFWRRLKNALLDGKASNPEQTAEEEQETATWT
T1 sequence (Q9JHF9 19-160 partner): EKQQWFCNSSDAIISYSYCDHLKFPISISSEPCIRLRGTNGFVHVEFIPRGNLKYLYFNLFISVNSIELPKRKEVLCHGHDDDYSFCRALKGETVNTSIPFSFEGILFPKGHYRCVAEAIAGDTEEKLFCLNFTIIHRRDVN
Protocol: The inhibitory effect on TLR4 was determined using the inhibition rate due to the test compound with respect to NO production as a result of addition of lipopolysaccharide (LPS) using murine macrophage cell line RAW264.7. The cells were adjusted to 2×10^6 cells/mL using RPM1-1640 culture medium (phenol red free) supplemented with 10% inactivated bovine fetal serum, and were plated on 384 well plate so as to contain 6×10^4 cells/30 μL per well. Thereafter the cells were cultured at 37° C. overnight under 5% CO2/95% air. The test compound dissolved in DMSO was diluted 200 times using RPM1-1640 culture medium and adjusted so as to form a compound concentration of 500 nM. The prepared test compound 10 μL (final concentration 100 nM) was added to the cells, and LPS (Sigma) and mouse interferon γ (Wako Pure Chemicals) were added in amounts of 10 μL so as to form final concentrations of 1.25 ng/mL and 0.2 ng/mL respectively. The cells were further cultured overnight, and then the nitrite ion (stable NO metabolite) concentration in the culture supernatant was measured as an index of NO production. The nitrite ion concentration was assayed by adding 10 μL of 20 μg/mL 2,3-diamino naphthalene (DAN) dissolved in 0.2N HCl to 20 μL culture supernatant, incubating at room temperature for ten minutes, and then adding 10 μL of 0.5N NaOH, and measuring the fluorescent value at 460 nm (excitation wavelength 355 nm) using an EnVision plate reader (Perkin Elmer). The NO production inhibition rate (%) was calculated using the value without the addition of stimulating agent as control of 100% inhibition, and the value without the addition of the compound as control of 0% inhibition.

TLR4 signal = assay: Inhibitory effect on TNFα production from HMGB-1 stimulated human Kupffer cell; type: cell-based; conditions: human primary Kupffer cells, HMGB-1 10 μg/mL, 24 hr
Protocol: TLR4 signal inhibitory activity in human Kupffer cell was evaluated as an inhibition rate of the test compound for TNFα produced by addition of HMGB-1 (SHINO-TEST), using human primary Kupffer cells (Cat# HUKCCS, Lot#HK8226) purchase from GIBCO. Cell suspension prepared in RPMI 1640-Gluta MAX™ medium supplemented with 10% inactivated bovine fetal serum was plated in 96-well I-type collagen-coated plate so as to contain 3.1×10^4 cells/100 μL/well. Then, the cells were cultured for 6 hr at 37° C. under 5% CO2/95% air to be adhered to the bottom of the plate. The non-adhered cells were rinsed off with PBS, and the test compound dissolved in DMSO was added to the adhered cells (final concentration: 1, 10, 100 nM), and the mixture was cultured for 1 hr. Then, HMGB-1 was added thereto (final concentration: 10 μg/mL), and the mixture was incubated for additional 24 hr. TNFα production amount contained in the culture supernatant was quantified by ELISA method (R&D systems). TNFα production inhibition rate (%) was calculated using the value under the HMGB-1-free condition as control of 100% inhibition and the value under the compound-free condition as control of 0% inhibition.

[1] = tested on: oxaliplatin induced-neuropathic pain model mouse; assay: Analgesic action on oxaliplatin induced-neuropathic pain model mouse; type: in vivo; conditions: C57BL/6N mice, 1 week after oxaliplatin 0.3 mg/kg i.p., mean ± standard error
Protocol: Oxaliplatin was diluted with saline by the predetermined concentration, and administered intraperitoneally to mice (C57BL/6N, male, 8 weeks old) at 0.3 mg/kg. The test compound was dissolved in 10% captisol or 10% captisol containing 0.1% N-methyl-2-pyrrolidone. The compound was administered intravenously (0.1-10 mg/kg body weight) to the mice immediately before intraperitoneal administration of various anticancer drugs. The pain threshold was measured 1 week after oxaliplatin administration. The pain threshold was evaluated as a weighted value (gram) showing pseudo-escape reaction, when the footpad of the right hind limb was pressed using balance type pressurizing device (Ugo Basile). The values in the table show the mean±standard errors of the weighted values.

For `CCOC(=O)C1=CC2(CC[C@H]1S(=O)(=O)[C@H]1CCc3cccc(Cl)c31)O[C@H](CO)[C@@H](CO)O2` [Compound 6, Ethyl (2R,3R,8R)-8-(((1S)-7-chloro-2,3-dihydro-1H-inden-1-yl)sulfonyl)-2,3-bis(hydroxymethyl)-1,4-dioxaspiro[4.5]dec-6-ene-7-carboxylate], the “NO production inhibitory effect at 100 nM (% inhibition)” value (TLR4) was 103 % inhibition, the “TNFα production inhibition rate (% inhibition)” value (TLR4 signal; compound concentration 1 nM) was 45 % inhibition and the “TNFα production inhibition rate (% inhibition)” value (TLR4 signal; compound concentration 10 nM) was 82 % inhibition. For the same molecule, the “TNFα production inhibition rate (% inhibition)” value (TLR4 signal; compound concentration 100 nM) was 85 % inhibition, the “Pain threshold (weighted value showing pseudo-escape reaction)” value (“Pain threshold” for short) ([1]; 1 mg/kg i.v.) was 190.0 ± 46.1 gram and the “Pain threshold” value ([1]; 3 mg/kg i.v.) was 153.3 ± 46.1 gram. The “Pain threshold” value ([1]; 10 mg/kg i.v.) was 310.0 ± 45.6 gram.
